Values quoted from earlier work, collected in PubChem BioAssay AID1259409 (Chemical Carcinogenesis Research Information System (CCRIS), 2018).

Test system: rodent chemically induced tumor inhibition, incidence and multiplicity
Assay: CCRIS tumor inhibitor studies
Settings: Carcinogen: AZOXYMETHANE, 25843-45-2, Dose [Inhibitor]: 0, Route [Inhibitor]: ORAL, Species: RAT, Strain/Sex: F344/MALE, Dose [Carcinogen]: 15 MG/KG BW 1/WK FOR 3 WK, Promoter: NONE USED

O=C(O)c1ccc(O)c(O)c1
tumour outcome (control, treated, inhibition, significance) (500 PPM IN DIET FOR 4 WK BEGINNING 1 WK PRIOR TO CARCINOGEN TREATMENT (STUDY DURATION: 32 WK), Target Tissue: Type of Lesion: COLON: ADENOCARCINOMA): 75%, 55%, 27%, not significant | tumour outcome (control, treated, inhibition, significance) (500 PPM IN DIET FOR 4 WK BEGINNING 1 WK PRIOR TO CARCINOGEN TREATMENT (STUDY DURATION: 32 WK), Target Tissue: Type of Lesion: COLON: ADENOMA): 10%, 5%, 50%, not significant | tumour outcome (control, treated, inhibition, significance) (500 PPM IN DIET FOR 4 WK BEGINNING 1 WK PRIOR TO CARCINOGEN TREATMENT (STUDY DURATION: 32 WK), Target Tissue: Type of Lesion: LARGE INTESTINE: ADENOCARCINOMA): 15/20 (75%), 11/20 (55%), 27%, not significant | tumour outcome (control, treated, inhibition, significance) (500 PPM IN DIET FOR 4 WK BEGINNING 1 WK PRIOR TO CARCINOGEN TREATMENT (STUDY DURATION: 32 WK), Target Tissue: Type of Lesion: LARGE INTESTINE: ADENOMA): 2/20 (10%), 1/20 (5%), 50%, not significant | tumour outcome (control, treated, inhibition, significance) (500 PPM IN DIET FOR 4 WK BEGINNING 1 WK PRIOR TO CARCINOGEN TREATMENT (STUDY DURATION: 32 WK), Target Tissue: Type of Lesion: SMALL INTESTINE: ADENOCARCINOMA): 6/20 (30%), 6/20 (30%), 0%, not significant | tumour outcome (control, treated, inhibition, significance) (500 PPM IN DIET FOR 4 WK BEGINNING 1 WK PRIOR TO CARCINOGEN TREATMENT (STUDY DURATION: 32 WK), Target Tissue: Type of Lesion: SMALL INTESTINE: ADENOMA): 1/20 (5%), 0/20 (0%), 100%, not significant | tumour outcome (control, treated, inhibition, significance) (500 PPM IN DIET FOR 28 WK BEGINNING 1 WK POST CARCINOGEN TREATMENT (STUDY DURATION: 32 WK), Target Tissue: Type of Lesion: COLON: ADENOCARCINOMA): 75%, 40%, 47%, not significant | tumour outcome (control, treated, inhibition, significance) (500 PPM IN DIET FOR 28 WK BEGINNING 1 WK POST CARCINOGEN TREATMENT (STUDY DURATION: 32 WK), Target Tissue: Type of Lesion: LARGE INTESTINE: ADENOCARCINOMA): 15/20 (75%), 8/20 (40%), 47%, not significant | tumour outcome (control, treated, inhibition, significance) (500 PPM IN DIET FOR 28 WK BEGINNING 1 WK POST CARCINOGEN TREATMENT (STUDY DURATION: 32 WK), Target Tissue: Type of Lesion: LARGE INTESTINE: ADENOMA): 2/20 (10%), 3/20 (15%), -50%, not significant | tumour outcome (control, treated, inhibition, significance) (500 PPM IN DIET FOR 28 WK BEGINNING 1 WK POST CARCINOGEN TREATMENT (STUDY DURATION: 32 WK), Target Tissue: Type of Lesion: SMALL INTESTINE: ADENOCARCINOMA): 6/20 (30%), 1/20 (5%), 83%, not significant | tumour outcome (control, treated, inhibition, significance) (500 PPM IN DIET FOR 28 WK BEGINNING 1 WK POST CARCINOGEN TREATMENT (STUDY DURATION: 32 WK), Target Tissue: Type of Lesion: SMALL INTESTINE: ADENOMA): 1/20 (5%), 0/20 (0%), 100%, not significant | tumour outcome (control, treated, inhibition, significance) (1000 PPM IN DIET FOR 4 WK BEGINNING 1 WK PRIOR TO CARCINOGEN TREATMENT (STUDY DURATION: 32 WK), Target Tissue: Type of Lesion: COLON: ADENOCARCINOMA): 75%, 30%, 60%, p<0.05 | tumour outcome (control, treated, inhibition, significance) (1000 PPM IN DIET FOR 4 WK BEGINNING 1 WK PRIOR TO CARCINOGEN TREATMENT (STUDY DURATION: 32 WK), Target Tissue: Type of Lesion: COLON: ADENOMA): 10%, 9%, 10%, not significant | tumour outcome (control, treated, inhibition, significance) (1000 PPM IN DIET FOR 4 WK BEGINNING 1 WK PRIOR TO CARCINOGEN TREATMENT (STUDY DURATION: 32 WK), Target Tissue: Type of Lesion: LARGE INTESTINE: ADENOCARCINOMA): 15/20 (75%), 7/23 (30%), 60%, p<0.006 | tumour outcome (control, treated, inhibition, significance) (1000 PPM IN DIET FOR 4 WK BEGINNING 1 WK PRIOR TO CARCINOGEN TREATMENT (STUDY DURATION: 32 WK), Target Tissue: Type of Lesion: LARGE INTESTINE: ADENOMA): 2/20 (10%), 2/23 (9%), 10%, not significant | tumour outcome (control, treated, inhibition, significance) (1000 PPM IN DIET FOR 4 WK BEGINNING 1 WK PRIOR TO CARCINOGEN TREATMENT (STUDY DURATION: 32 WK), Target Tissue: Type of Lesion: SMALL INTESTINE: ADENOCARCINOMA): 6/20 (30%), 8/23 (35%), -17%, not significant | tumour outcome (control, treated, inhibition, significance) (1000 PPM IN DIET FOR 4 WK BEGINNING 1 WK PRIOR TO CARCINOGEN TREATMENT (STUDY DURATION: 32 WK), Target Tissue: Type of Lesion: SMALL INTESTINE: ADENOMA): 1/20 (5%), 1/23 (4%), 20%, not significant | tumour outcome (control, treated, inhibition, significance) (1000 PPM IN DIET FOR 28 WK BEGINNING 1 WK POST CARCINOGEN TREATMENT (STUDY DURATION: 32 WK), Target Tissue: Type of Lesion: COLON: ADENOCARCINOMA): 75%, 22%, 71%, p<0.05 | tumour outcome (control, treated, inhibition, significance) (1000 PPM IN DIET FOR 28 WK BEGINNING 1 WK POST CARCINOGEN TREATMENT (STUDY DURATION: 32 WK), Target Tissue: Type of Lesion: COLON: ADENOMA): 10%, 9%, 10%, not significant | tumour outcome (control, treated, inhibition, significance) (1000 PPM IN DIET FOR 28 WK BEGINNING 1 WK POST CARCINOGEN TREATMENT (STUDY DURATION: 32 WK), Target Tissue: Type of Lesion: LARGE INTESTINE: ADENOCARCINOMA): 15/20 (75%), 5/23 (22%), 71%, p<0.008
